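Cultured in 96-well plates, cells were exposed to test compound for 48 hours across five concentrations. At the GI50, growth is halved. TGI: total growth inhibition.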 Bounds are passed on as bounds.

Experiment in all cases: growth of human tumour cells (NCI), 48 h
Assay [1] has as its system HCC-2998 colon.
Assay [2] deals with IGROV1 ovarian.
The test system of assay [3] is NCI-H23 lung.
For assay [4], the system named is OVCAR-5 ovarian.
In assay [5] the test system is PC-3 prostate.
For assay [6], the system named is RXF 393 renal.
The test system of assay [7] is SF-295 CNS.
For assay [8], the system named is SK-MEL-2 melanoma.
The test system of assay [9] is UO-31 renal.
In assay [10] the test system is MOLT-4 leukemia.

Take `O=C(NCCCCN1CCOCC1)c1cc2ccccc2o1`: the GI50 in [1], in assay [2], in [3], in assay [4], in assay [5] and in [6] was more than 100 µM throughout. Moreover, the GI50 in assay [7], in assay [8] and in [9] was more than 100 µM each time. Further, the TGI in [1], in assay [2], in [3], in assay [4], in [5] and in assay [6] was more than 100 µM each time. The TGI in [7], in [8] and in [9] was more than 100 µM throughout.
As to `Cc1c(C)n(CCCN2CCN(C)CC2)c2ccc(Oc3cccc(C(=O)N4CCN(CCc5ccc(F)cc5)CC4)c3)cc12`, the GI50 was 1.81 µM in [1]; 1.57 µM in assay [2]; 1.85 µM in assay [3]; 1.58 µM in assay [4]; 1.06 µM in assay [5]; 1.59 µM in assay [6]. The results for the GI50 in assay [7] and in assay [9] were 1.85 µM and 1.23 µM, respectively. For the same compound, the TGI is 3.37 µM in assay [1]; 3.16 µM in assay [2]; 3.49 µM in [3]; 3 µM in [4]; 2.61 µM in assay [5]; 3.06 µM in assay [6]. For the same compound, the TGI in assay [7] is 3.33 µM; in [9] it was 2.52 µM.
Turning to `Cc1ccc(O)c(NC(=O)c2cccc(Nc3ccnc(C(F)(F)F)c3)c2)c1`, the GI50 was 10.5 µM in assay [1]; 12.6 µM in assay [2]; 2.02 µM in [10]; 2.27 µM in assay [3]; 13 µM in assay [4]; 11.4 µM in assay [5]. Besides, the GI50 is 6.73 µM in assay [7], 5.28 µM in assay [8] and 3.03 µM in [9]. Besides, the TGI in assay [1] was determined as 23.2 µM; in assay [2] it was 28.1 µM; in assay [10], 8.15 µM; in assay [3], 21.2 µM; in assay [4], 36 µM; in assay [5], 38.5 µM. The TGI in assay [7] came out at 27.6 µM; in assay [8], 18.9 µM; in [9], 18.1 µM.
In the case of `COc1ccc(Nc2nc3cc(N)cc(N)c3nc2-c2ccccc2)cc1`, the GI50 in [1] is 28.1 µM; in assay [2], 15.4 µM; in assay [3] it was 12.5 µM; in assay [4], 21.5 µM; in [5] it was 20.9 µM; in assay [6], 10.9 µM. Also, the GI50 in assay [7] is 31.9 µM; in assay [8], 15.6 µM; in [9] it was 16.6 µM. In addition, the TGI was more than 100 µM in assay [1]; 35.8 µM in assay [2]; 25.3 µM in assay [3]; 53.4 µM in [4]; 47.6 µM in assay [5]; 24.2 µM in assay [6]. For the same compound, the results for the TGI in [7], in assay [8] and in assay [9] were more than 100 µM, 31.4 µM and 34.2 µM, respectively.
Take `CN(Cc1ccccc1)Cn1ccnc1`: the TGI in assay [2], in assay [10], in [3], in assay [4], in assay [5] and in assay [6] was more than 100 µM in each case. Also, the TGI in assay [7], in assay [8] and in [9] was more than 100 µM in each case.
Turning to `O=C(O)CSc1n[nH]c(=O)[nH]c1=O`, the TGI in [2], in assay [10], in assay [3], in [4], in assay [5] and in [6] was more than 100 µM in each case. Moreover, the TGI in assay [7], in [8] and in assay [9] was more than 100 µM in each case.
For `O=C1NC(=C(Cl)Cl)/C(=N/S(=O)(=O)N2CCCCC2)N1`, the GI50 was 2.28 µM in assay [1]; 2.2 µM in [3]; 1.87 µM in assay [4]; 3.05 µM in [5]; 1.84 µM in [6]; 5.14 µM in assay [7]. The GI50 is 2.92 µM in assay [8] and 2.87 µM in [9]. Moreover, the TGI in assay [1] was 5.22 µM; in [3], 5 µM; in assay [4], 3.63 µM; in [5] it was 10.5 µM; in [6] it was 3.39 µM; in [7] it was 17.3 µM. Further, the TGI was found to be 7.72 µM in [8] and 12.4 µM in [9].
For `OCC1C(OCc2ccccc2)C(OCc2ccccc2)C(OCc2ccccc2)CN1Cc1ccccc1` (stereo not drawn), the TGI in assay [1] was more than 100 µM; in assay [2], more than 100 µM; in assay [10] it was more than 100 µM; in [3] it was 53.3 µM; in assay [4], more than 100 µM; in [5], 88.1 µM. Moreover, the TGI was 48.4 µM in assay [6], more than 100 µM in assay [7] and 37.3 µM in [9].
Regarding `Cc1cc2nc(NCCN)n(Cc3ccc(F)c(Cl)c3)c2cc1C`, the GI50 in assay [1] was 1.82 µM; in assay [2], 11.7 µM; in assay [10] it was 6.42 µM; in [3] it was 14.5 µM; in assay [4] it was 13.7 µM; in assay [5], 10 µM. For the same compound, the GI50 in assay [7] is 12.8 µM; in assay [8], 19.1 µM; in assay [9] it was 10.7 µM. Besides, the TGI stood at 3.65 µM in assay [1]; 27.5 µM in [2]; 22.1 µM in assay [10]; 29.2 µM in assay [3]; 28.3 µM in assay [4]; 22.4 µM in [5]. Further, the TGI in assay [7] came to 26.1 µM; in assay [8] it was 34 µM; in assay [9], 24 µM.
Turning to `O=C(O)c1cc(-c2ccc3cc4c(cc3c2)OCO4)nc2ccccc12`, the TGI in assay [2], in assay [10], in assay [3], in assay [4], in assay [5] and in assay [6] was more than 100 µM each time. In addition, the TGI in assay [7] is more than 100 µM; in assay [8] it was more than 100 µM; in assay [9], 28.1 µM.
With `C=C(c1ccc(OC)c(/C=C/C(=O)c2ccc3c(c2)OCO3)c1)c1cc(OC)c(OC)c(OC)c1`, the GI50 in [2] is 4.31 µM; in assay [10] it was 3.08 µM; in assay [3], 3.2 µM; in assay [4] it was 4.4 µM; in [5], 2.91 µM; in assay [6], 1.98 µM. The GI50 in assay [7] is 4.14 µM; in assay [8], 4.25 µM; in assay [9] it was 3.1 µM. For the same compound, the TGI in assay [2] is more than 100 µM; in [10] it was more than 100 µM; in [3], more than 100 µM; in [4] it was more than 100 µM; in assay [5], more than 100 µM; in [6], 5.17 µM. Moreover, the TGI in [7], in assay [8] and in assay [9] was more than 100 µM throughout.
As to `Cc1nc([N+](=O)[O-])cn1-c1nc2ccccn2c1[N+](=O)[O-]`, the TGI is more than 100 µM in assay [1]; more than 100 µM in [2]; more than 100 µM in assay [3]; more than 100 µM in assay [4]; more than 100 µM in assay [5]; 44.5 µM in assay [6]. In addition, the TGI in [7], in assay [8] and in assay [9] was more than 100 µM each time.
With `OC(CNc1ccnc2cc(Cl)ccc12)CNc1ccnc2cc(Cl)ccc12`, the GI50 in assay [2] was 10.9 µM; in assay [3], 2.79 µM; in assay [4] it was 1.73 µM; in assay [5], 1.6 µM; in assay [6], 1.7 µM; in assay [7], 1.82 µM. The GI50 in assay [9] is 17 µM. The TGI in [2] stood at 36.8 µM; in [3], 7.77 µM; in assay [4] it was 3.42 µM; in [5], 3.1 µM; in assay [6] it was 3.19 µM; in [7], 3.56 µM. The TGI in [9] worked out at 38 µM.
As for `O=C(O)CCNCC(=O)O`, the TGI in [2], in assay [10], in assay [3], in assay [4], in assay [5] and in assay [6] was more than 100 µM throughout. Besides, the TGI in assay [7], in [8] and in assay [9] was more than 100 µM throughout.
With `Cc1cnc2n1S(=O)(=O)c1cc(C(=O)Nc3cccc4nsnc34)c(Cl)cc1S2`, the GI50 in [2] was 31.2 µM; in assay [10], 45.1 µM; in assay [3], 18 µM; in assay [4], 54 µM; in [5], 20.1 µM; in [6], 12.9 µM. The results for the GI50 in assay [7], in assay [8] and in [9] were 22.8 µM, 44.2 µM and 22.9 µM, respectively. Moreover, the TGI is more than 100 µM in [2]; more than 100 µM in assay [10]; 32.8 µM in assay [3]; more than 100 µM in assay [4]; 38.9 µM in [5]; 29.4 µM in assay [6]. In addition, the TGI in assay [7] is 49.3 µM; in [8] it was more than 100 µM; in assay [9], 51.8 µM.

Values taken from PubChem BioAssay (NCI).
